We go through eleven compounds from patent US20020091265A1, “4-phenyl-pyridine derivatives” (priority 1999, published 2002).

The structures appear in SMILES notation. Where a name gives a salt, the structure may show the parent alone.

In series [1] the target is T1, human NK1 receptor (Homo sapiens, UniProt P25103). In words: [3H]substance P binding at human NK1 receptors in CHO cells. As to conditions: [3H]substance P 0.6 nM, 60 min room temperature, read-out: affinity (pKi) for the human NK1 receptor (converted). How it is done: All assays were performed in triplicate in at least2 separate experiments.
T1 sequence (P25103 whole entry): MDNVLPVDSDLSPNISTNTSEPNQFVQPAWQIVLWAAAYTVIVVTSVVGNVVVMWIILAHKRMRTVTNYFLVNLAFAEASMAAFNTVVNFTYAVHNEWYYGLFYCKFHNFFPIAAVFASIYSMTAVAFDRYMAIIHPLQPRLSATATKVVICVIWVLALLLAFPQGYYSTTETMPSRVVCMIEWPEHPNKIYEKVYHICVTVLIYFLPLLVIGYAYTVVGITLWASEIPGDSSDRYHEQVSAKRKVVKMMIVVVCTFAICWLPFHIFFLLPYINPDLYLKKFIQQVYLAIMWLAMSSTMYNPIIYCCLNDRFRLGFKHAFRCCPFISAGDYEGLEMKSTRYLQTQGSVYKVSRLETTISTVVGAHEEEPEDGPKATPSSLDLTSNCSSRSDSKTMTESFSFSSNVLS
The next series concerns the target T2, NK2 receptors (Homo sapiens, UniProt P21452).
T2 sequence (P21452 1-398): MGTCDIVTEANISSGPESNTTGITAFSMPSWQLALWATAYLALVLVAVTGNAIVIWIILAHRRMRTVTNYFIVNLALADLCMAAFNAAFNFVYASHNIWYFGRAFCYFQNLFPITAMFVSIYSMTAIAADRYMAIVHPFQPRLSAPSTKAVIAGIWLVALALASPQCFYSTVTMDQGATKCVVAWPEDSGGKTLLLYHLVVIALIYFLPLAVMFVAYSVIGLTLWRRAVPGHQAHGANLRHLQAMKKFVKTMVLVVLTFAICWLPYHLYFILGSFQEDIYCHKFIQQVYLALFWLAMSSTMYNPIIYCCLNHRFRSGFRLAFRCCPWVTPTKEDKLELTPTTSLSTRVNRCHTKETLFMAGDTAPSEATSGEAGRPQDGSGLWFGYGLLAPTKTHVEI
The series is described as follows: Selectivity for NK1 compared to NK2 receptors. The format is binding.

The target of a further series is T3, NK3 receptors (Homo sapiens, UniProt P29371).
T3 sequence (P29371 1-465): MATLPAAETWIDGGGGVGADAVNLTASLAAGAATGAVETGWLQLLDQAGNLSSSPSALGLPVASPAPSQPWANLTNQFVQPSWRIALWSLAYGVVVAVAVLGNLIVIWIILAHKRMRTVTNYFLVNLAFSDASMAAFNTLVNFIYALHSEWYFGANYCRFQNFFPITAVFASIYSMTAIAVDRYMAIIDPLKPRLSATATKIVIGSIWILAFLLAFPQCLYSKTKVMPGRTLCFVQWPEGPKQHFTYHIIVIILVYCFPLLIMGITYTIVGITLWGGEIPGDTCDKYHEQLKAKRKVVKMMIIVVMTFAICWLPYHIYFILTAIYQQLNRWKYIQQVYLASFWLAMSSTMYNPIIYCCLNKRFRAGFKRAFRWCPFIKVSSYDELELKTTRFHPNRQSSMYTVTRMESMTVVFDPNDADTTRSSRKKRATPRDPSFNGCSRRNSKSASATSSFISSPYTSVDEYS
In words: Selectivity for NK1 compared to NK3 receptors. The format is binding.

The subject of series [2] is over 50 other binding sites. In words: Selectivity for NK1 compared to over 50 other binding sites.
Series [3] has as its system foot-tapping behaviour induced in gerbils with an NK1 receptor agonist. In words: Foot-tapping behaviour induced by i.c.v. NK1 receptor agonist. Particulars: for dose calculated to inhibit 50% of the foot-tapping behaviour: oral administration. The format is in vivo, gerbil. Here is the method: In vivo the compound of formula Ia antagonises foot-tapping behaviour induced in gerbils with intracerebroventricular (i.c.v.) injections of an NK1 receptor agonist. The dose for this compound calculated to inhibit 50% of the foot-tapping behaviour following oral administration was 0.2 mg/kg.
In vivo 2-(3,5-bis-trifluoromethyl-phenyl)-N-methyl-N-[6-(4-methyl-piperazin-1-yl)-4-o-tolyl-pyridin-3-yl]-isobutyramide antagonises foot-tapping behaviour induced in Gerbils with intracerebroventricular (i.c.v.) injections of an NK1 receptor agonist. The dose of this compound calculated to inhibit 50% of the foot-tapping behaviour following oral administration was 0.5 mg/kg.
In vivo the compound of formula Ic antagonises foot-tapping behaviour induced in Gerbils with intracerebroventricular (i.c.v.) injections of an NK1 receptor agonist. The dose of this compound calculated to inhibit 50% of the foot-tapping behaviour following oral administration was 1.5 mg/kg.

In series [4] the test system is emesis induced in ferrets by emetogens. The series is described as follows: Antiemetic test in ferrets. The format is in vivo, ferret. Particulars: 0.3 mg/kg p.o., 2 hours before the emetogen. Here is the method:
The compound of formula 1a, 2-(3,5-Bis-trifluoromethyl-phenyl)-N-methyl-N-(6-morpholin-4-yl-4-o-tolyl-pyridin-3-yl)-isobutyramide, was also tested as an antiemetic agent in ferrets.
2-(3,5-bis-trifluoromethyl-phenyl)-N-methyl-N-[6-(4-methyl-piperazin-1-yl)-4-o-tolyl-pyridin-3-yl]-isobutyramide was also tested as an antiemetic agent in Ferrets.

Series [5] is described as follows: Pharmacokinetic parameters in rats. Particulars: rat, in vivo; for bioavailability: po; for half-life: read-out: terminal half-life (converted); for Vd: read-out: volume of distribution.
A short description of a further series: in vivo. Particulars: dog; for bioavailability: po.
Series [6] addresses T1, human NK1 receptor. The series is described as follows: Substance P induced Ca2+ influx in CHO cells (FLIPR). As to conditions: for effect on substance P induced Ca2+ influxes: CHO cells expressing recombinant human NK1 receptor, FLIPR; for type of antagonism at human recombinant NK1 receptors: from Ca2+ influx data. The class given is cell-based. Also on record: expressed in transfected cells; host or cells: CHO cells. The source says: The activity in vitro of the compound of formula 1a was examined by studying its effect on substance P induced Ca^2+ influxes in CHO cells expressing the recombinant human NK1 receptor. In these cells, substance P causes a concentration dependent influx of Ca^2+ which can be measured using FLIPR technology.
The activity of 2-(3,5-bis-trifluoromethyl-phenyl)-N-methyl-N-[^6-(^4-methyl-piperazin-1-yl)-4-o-tolyl-pyridin-3-yl]-isobutyramide in vitro was examined by studying its effect on substance P induced Ca^2+influxes in CHO cells expressing the recombinant human NK1 receptor. In these cells, substance P causes a concentration dependent influx of Ca^2+ which can be measured using FLIPR technology.
The activity of the compound of formula Ic in vitro was examined by studying its effect on substance P induced Ca^2+ influxes in CHO cells expressing the recombinant human NK1 receptor. In these cells, substance P causes a concentration dependent influx of Ca^2+ which can be measured using FLIPR technology.

As a reminder, the clearance is a measure of how efficiently the substance is removed, as volume per time. Read a low clearance as a low capacity for elimination. As usually defined, the bioavailability is the share of a dose that reaches the circulation, judged against a reference dose that is usually intravenous. A word on the half-life: it is how long it takes for the measured level to halve. The melting point is the temperature of the solid-liquid transition.

Description for in vivo: The pharmacokinetic parameters have been evaluated in both rats and dogs.

Consider `Cc1ccccc1-c1cc(N2CCOCC2)ncc1N(C)C(=O)C(C)(C)c1cc(C(F)(F)F)cc(C(F)(F)F)c1` [Ia, 2-(3,5-bis-trifluoromethyl-phenyl)-N-methyl-N-(6-morpholin-4-yl-4-o-tolyl-pyridin-3-yl)-isobutyramide], for which, at human NK1 receptor [1], the Ki is 1 nM. The “selectivity for the NK1 receptor compared to NK2 receptors” value on NK2 receptors is reported as “over 2 orders of magnitude”. Also, the “selectivity for the NK1 receptor compared to NK3 receptors” value at NK3 receptors is listed as “over 2 orders of magnitude”. In series [2], the “selectivity for the NK1 receptor compared to over 50 other binding sites” value is given as “over 2 orders of magnitude”. Also, the “dose calculated to inhibit 50% of the foot-tapping behaviour” value in series [3] is recorded as 0.2 mg/kg. Moreover, the “emesis induced by all emetogens (apomorphine, morphine, ipecacuanha, cisplatin, CuSO4)” value in [4] is given as “completely blocked”. In series [5], the clearance is 0.24 L/h/kg, the bioavailability is 50%, the half-life is 23 h and the Vd was determined as 8 L/kg. In the series “in vivo”, this compound had a Vd of 22 L/kg, a clearance of 0.96 L/h/kg, a half-life of 40 h and a bioavailability of 30 to 40%. Besides, on human NK1 receptor [6], the “effect on substance P induced Ca2+ influxes” value is “rightward shift in the concentration effect curve of substance P” and the “type of antagonism at human recombinant NK1 receptors” value is recorded as “competitive antagonist”. Besides, at human NK1 receptor [6] (substance P induced Ca2+ influx, CHO cells), the “slope of the Schild regression” value is on record as 1.1.
For `Cc1ccccc1-c1cc(N2CCOCC2)ncc1N(C)C(=O)C(C)(C)c1cc(C(F)(F)F)cc(C(F)(F)F)c1` (as salt: hydrochloride) [Ia, 2-(3,5-bis-trifluoromethyl-phenyl)-N-methyl-N-(6-morpholin-4-yl-4-o-tolyl-pyridin-3-yl)-isobutyramide], the melting point was 73.5 to 76 °C.
On to `Cc1ccccc1-c1cc(N2CCN(Cc3n[nH]c(=O)[nH]3)CC2)ncc1C(=O)N(C)Cc1cc(C(F)(F)F)cc(C(F)(F)F)c1` [Example 58, N-(3,5-Bis-trifluoromethyl-benzyl)-N-methyl-6-[4-(5-oxo-4,5-dihydro-1H-[1,2,4]triazol-3-ylmethyl)-piperazin-1-yl]-4-o-tolyl-nicotinamide], for which the Ki at human NK1 receptor [1] was 0.288 nM.
In turn, `Cc1ccccc1-c1cc(N(C)C)ncc1N(C)C(=O)C(C)(C)c1cc(C(F)(F)F)cc(C(F)(F)F)c1` (as salt: hydrochloride) [Example 29, 2-(3,5-Bis-trifluoromethyl-phenyl)-N-(6-dimethylamino-4-o-tolyl-pyridin-3-yl)-N-methyl-isobutyramide] had a melting point of 174 to 175 °C.
For `CN(C(=O)C(C)(C)c1cc(C(F)(F)F)cc(C(F)(F)F)c1)c1cnccc1-c1ccccc1Cl` [Ic, 2-(3,5-Bis-trifluoromethyl-phenyl)-N-[4-(2-chloro-phenyl)-pyridin-3-yl]-N-methyl-isobutyramide], at human NK1 receptor [1], the Ki was 2.51 nM. Besides, the “selectivity for the NK1 receptor compared to NK2 receptors” value at NK2 receptors is listed as “over 2 orders of magnitude”. Further, at NK3 receptors, the “selectivity for the NK1 receptor compared to NK3 receptors” value is “over 2 orders of magnitude”. Moreover, the “selectivity for the NK1 receptor compared to over 50 other binding sites” value in series [2] is reported as “over 2 orders of magnitude”. Besides, in series [3], the “total plasma concentration required to completely block the foot-tapping behaviour” value amounted to 100 ng/mL and the “dose calculated to inhibit 50% of the foot-tapping behaviour” value is recorded as 1.5 mg/kg. Also, in series [5], the clearance is 2.7 L/h/kg, the bioavailability is roughly 30%, the half-life is 11 h and the Vd is 2.6 L/kg. In “in vivo”, this compound had a Vd of 4.5 L/kg, a clearance of 1.8 L/h/kg, a half-life of 3.5 h and a bioavailability of 16%. In addition, at human NK1 receptor [6], the “effect on substance P induced Ca2+ influxes” value is reported as “inhibited this effect in a concentration dependent manner” and the “type of antagonism at human recombinant NK1 receptors” value is “competitive antagonist”.
Turning to `CN(C(=O)C(C)(C)c1cc(C(F)(F)F)cc(C(F)(F)F)c1)c1cnccc1-c1ccccc1Cl` (as salt: hydrochloride) [Ic, 2-(3,5-Bis-trifluoromethyl-phenyl)-N-[4-(2-chloro-phenyl)-pyridin-3-yl]-N-methyl-isobutyramide], the melting point is 186 to 188 °C.
As to `Cc1ccccc1-c1cc(N(C)CCN2CCOCC2)ncc1N(C)C(=O)C(C)(C)c1cc(C(F)(F)F)cc(C(F)(F)F)c1` [Example 25, 2-(3,5-Bis-trifluoromethyl-phenyl)-N-methyl-N-{6-[methyl-(2-morpholin-4-yl-ethyl)-amino]-4-o-tolyl-pyridin-3-yl}-isobutyramide], the Ki on human NK1 receptor [1] was 2 nM.
In the case of `CC(C)c1cc(Cl)ncc1C(=O)NC(C)(C)C` [Example 83, N-tert-Butyl-6-chloro-4-(prop-2-yl)-nicotinamide], the melting point was 130 to 140 °C (dec.).
Turning to `Cc1ccccc1-c1cc(N2CCNCC2)ncc1N(C)C(=O)C(C)(C)c1cc(C(F)(F)F)cc(C(F)(F)F)c1` [Example 31, 2-(3,5-Bis-trifluoromethyl-phenyl)-N-methyl-N-(6-piperazin-1-yl-4-o-tolyl-pyridin-3-yl)-isobutyramide], on human NK1 receptor [1], the Ki is 1 nM.
As to `Cc1ccccc1-c1ccncc1N(C)C(=O)C(C)(C)c1cc(C(F)(F)F)cc(C(F)(F)F)c1` [Example 18, 2-(3,5-Bis-trifluoromethyl-phenyl)-N-methyl-N-(4-o-tolyl-pyridin-3-yl)-isobutyramide Hydrochloride (1:1)], the Ki at human NK1 receptor [1] is 3.39 nM.
Compound `CC(C)(C)NC(=O)c1cnc(Cl)cc1-c1ccc(F)cc1` [Example 84, N-tert.-Butyl-6-chloro-4-p-fluoro-phenyl-nicotinamide] registered a melting point of 168 to 173 °C.
